Data on 28 compounds can be found in patent US20230159469A1, “NOVEL PHTHALAZINE DERIVATIVE HAVING ECTONUCLOEOTIDE PYROPHOSPHATASE/PHOSPHODIESTE RASE INHIBITORY ACTIVITY, AND USE THEREOF” (TXINNO BIOSCIENCE INC., priority 2020, published 2023).

Structures can show the parent of a compound that is named as a salt. A value given as a limit tells only on which side of the number the result lay.

The test deals with T1, human recombinant ENPP1 (Homo sapiens, UniProt P22413).
T1 construct: purchased R & D systems
T1 sequence (P22413 1-925): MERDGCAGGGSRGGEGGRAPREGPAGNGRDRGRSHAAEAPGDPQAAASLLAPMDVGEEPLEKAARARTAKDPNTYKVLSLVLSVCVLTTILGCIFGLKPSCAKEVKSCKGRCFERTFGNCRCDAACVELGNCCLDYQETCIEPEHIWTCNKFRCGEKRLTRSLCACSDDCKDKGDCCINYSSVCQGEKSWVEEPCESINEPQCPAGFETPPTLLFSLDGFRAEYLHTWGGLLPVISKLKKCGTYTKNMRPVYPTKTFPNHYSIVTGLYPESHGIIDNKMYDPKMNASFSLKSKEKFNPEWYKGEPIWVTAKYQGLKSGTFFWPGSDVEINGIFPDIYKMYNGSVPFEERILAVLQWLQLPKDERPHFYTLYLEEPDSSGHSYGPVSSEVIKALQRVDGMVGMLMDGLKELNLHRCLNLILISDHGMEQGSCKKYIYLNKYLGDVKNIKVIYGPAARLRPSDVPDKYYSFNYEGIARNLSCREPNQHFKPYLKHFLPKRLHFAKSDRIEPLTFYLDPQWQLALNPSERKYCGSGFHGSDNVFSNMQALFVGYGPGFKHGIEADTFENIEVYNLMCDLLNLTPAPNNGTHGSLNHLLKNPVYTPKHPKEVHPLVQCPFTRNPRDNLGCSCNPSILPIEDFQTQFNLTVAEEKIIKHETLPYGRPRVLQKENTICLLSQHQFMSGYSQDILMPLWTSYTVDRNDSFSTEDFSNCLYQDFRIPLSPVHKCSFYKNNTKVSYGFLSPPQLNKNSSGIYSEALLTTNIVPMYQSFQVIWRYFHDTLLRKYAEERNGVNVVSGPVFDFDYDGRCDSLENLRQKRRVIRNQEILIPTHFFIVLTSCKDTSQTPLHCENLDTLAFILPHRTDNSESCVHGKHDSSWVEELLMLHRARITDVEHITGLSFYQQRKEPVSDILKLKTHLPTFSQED
Kind of test: ENPP1 enzyme assay with cGAMP substrate (AMP-Glo luminescence). The following applies: human recombinant ENPP1 3 ng/reaction, cGAMP 5 μM, 37° C. 90 minutes, read-out: Enzymatic activity (ENPP1 IC50). It counts as biochemical. On the procedure: ENPP1 hydrolyzes nucleotides or nucleotide derivatives to produce nucleoside -5′-monophosphate and pyrophosphate. in addition, ENPP1 hydrolyzes 2′,3′-cGAMP to produce 5′-adenosine monophosphate (AMP) and 5′-guanosine monophosphate (GMP). AMP produced from the reaction is measured using the AMP-Glo® kit (Promega). The AMP-Glo® kit contains two reagents. The first reagent terminates the AMP-producing enzymatic reaction, removes ATP and converts the produced AMP into ADP. The second reagent converts ADP to ATP which is used to generate luminescence in the luciferase reaction. The amount of luminescence measured is proportional to the amount of AMP produced by ENPP1.
The final reaction mixture contains 50 mM Tris (pH 8.5) buffer, 250 mM NaCl, 0.5 mM. CaCl2, 1 μM ZnCl2, 5% glycerol and 1% DMSO. […] The reaction was initiated by addition of cGAMP (at a final concentration of 5 μM) and reacted at 37° C. for 90 minutes. At the end of the reaction, 10 μl of the AMP-Glo first reagent was added to stop the reaction and the result was stored at room temperature for […]. After storage, 20 μl of an AMP detection solution (a mixture of AMP-Glo II reagent and Kinase-Gio at a ratio of 1:100) was added and stored at room. temperature for 1 hour. Luminescence signals were measured using a Victor® plate reader (Perkin Elmer). The maximal activity control (containing enzymes and substrates only in the presence of 1% DMSO; MAX) and the minimal activity control (containing substrates and 1% DMSO; MIN) were evaluated simultaneously. In each experiment, serially diluted reference ENPP1 inhibitors were tested together. IC50, indicating % residual activity versus compound concentration was determined by fitting inhibition curves using the 3-parameter analysis of GraphPad Prism® software. Serially diluted samples of one compound were tested two or more times and an average IC50 of each compound was calculated.
The IC50 is the point on the concentration scale where inhibition reaches its midpoint. For `COc1ccc2c(=O)n(C)nc(-c3ccc(CN)cc3)c2c1` [Compound No. 44, (4-(7-methoxy-3-methyl-4-oxo-3,4-dihydrophthalazin-1-yl)phenyl)methanaminium chloride], the IC50 was in the range of 1 to 10 µM.
Next, `COc1ccc2c(-c3ccc(CN)cc3)nn(C)c(=O)c2c1` [Compound No. 46, 4-(4-(aminomethyl)phenyl)-7-methoxy-2-methylphthalazin-1(2H)-one hydrochloride]: more than 10 µM; `COc1ccc2c(-c3ccc(CN)cc3)n[nH]c(=O)c2c1` [Compound No. 47, 4-(4-(aminomethyl)-phenyl)-7-methoxyphthalazin-1(2H)-one hydrochloride]: less than 1 µM.
In the case of `COc1cc2c(-c3ccc(CN)cc3)n[nH]c(=O)c2cc1OC` [Compound No. 48, 4-(4-(aminomethyl)phenyl)-6,7-dimethoxyphthalazin-1(2H)-one hydrochloride] it was less than 1 µM.
Regarding `COc1cc2c(-c3ccc(CN)cc3)nn(C)c(=O)c2cc1OC` [Compound No. 49, 4-(4-(aminomethyl)phenyl)-6,7-dimethoxy-2-methylphthalazin-1(2H)-one hydrochloride], the IC50 was less than 1 µM.
On to `C[C@@H](N)c1ccc(-c2n[nH]c(=O)c3ccccc23)cc1` [Compound No. 51, (R)-4-(4-(1-aminoethyl)phenyl)phthalazin-1(2H)-one hydrochloride], for which the IC50 is less than 1 µM.
Next, `CC(C)(N)c1ccc(-c2n[nH]c(=O)c3ccccc23)cc1` [Compound No. 52, 4-(4-(2-aminopropan-2-yl)phenyl)phthalazin-1(2H)-one hydrochloride]: 1 to 10 µM; `NCc1ccc(-c2n[nH]c(=O)c3ccccc23)cc1C(F)(F)F` [Compound No. 53, 4-(4-(aminomethyl)-3-(trifluoromethyl)phenyl)phthalazin-1(2H)-one hydrochloride]: less than 1 µM.
In the case of `O=c1[nH]nc(-c2ccc3c(c2)CCNC3)c2ccccc12` [Compound No. 55, 4-(1,2,3,4-tetrahydroisoquinolin-6-yl)phthalazin-1(2H)-one hydrochloride] it was less than 1 µM; in that of `Cn1nc(-c2ccc3c(c2)CCNC3)c2ccccc2c1=O` [Compound No. 56, 2-methyl-4-(1,2,3,4-tetrahydroisoquinolin-6-yl)phthalazin-1(2H)-one hydrochloride], 1 to 10 µM; in that of `COc1cc2c(-c3ccc4c(c3)CCNC4)n[nH]c(=O)c2cc1OC` [Compound No. 57, 6,7-dimethoxy-4-(1,2,3,4-tetrahydroisoquinolin-6-yl)phthalazin-1(2H)-one hydrochloride], 1 to 10 µM.
Next, `COc1cc2c(-c3ccc4c(c3)CCNC4)nn(C)c(=O)c2cc1OC` [Compound No. 58, 6,7-dimethoxy-2-methyl-4-(1,2,3,4-tetrahydroisoquinolin-6-yl)phthalazin-1(2H)-one hydrochloride]: 1 to 10 µM.
For the compound `COc1cc2c(-c3ccc4c(c3)CNCC4)n[nH]c(=O)c2cc1OC` [Compound No. 59, 6,7-dimethoxy-4-(1,2,3,4-tetrahydroisoquinolin-7-yl) phthalazin-1(2H)-one], the IC50 was more than 10 µM.
Next, `CC(C)(C)OC(=O)NS(=O)(=O)Nc1cccc(-c2n[nH]c(=O)c3ccccc23)c1` [Compound No. 60, tert-butyl (N-(3-(4-oxo-3,4-dihydrophthalazin-1-yl)phenyl)sulfamoyl)carbamate]: more than 10 µM; `Cn1nc(-c2cccc(NS(=O)(=O)NC(=O)OC(C)(C)C)c2)c2ccccc2c1=O` [Compound No. 61, tert-butyl (N-(3-(3-methyl-4-oxo-3,4-dihydrophthalazin-1-yl)phenyl)sulfamoyl)carbamate]: more than 10 µM; `CC(C)(C)OC(=O)NS(=O)(=O)Nc1cccc(-c2nn(Cc3ccccc3)c(=O)c3ccccc23)c1` [Compound No. 62, tert-butyl (N-(3-(3-benzyl-4-oxo-3,4-dihydrophthalazin-1-yl)phenyl)sulfamoyl)carbamate]: more than 10 µM.
Next, `Cn1nc(-c2cccc(CNS(=O)(=O)NC(=O)OC(C)(C)C)c2)c2ccccc2c1=O` [Compound No. 64, tert-butyl N-(3-(3-methyl-4-oxo-3,4-dihydrophthalazin-1-yl)benzyl)sulfamoyl carbamate]: more than 10 µM; `Cn1nc(-c2ccc(CNS(=O)(=O)NC(=O)OC(C)(C)C)cc2)c2ccccc2c1=O` [Compound No. 66, tert-butyl (N-(4-(3-methyl-4-oxo-3,4-dihydrophthalazin-1-yl)benzyl)sulfamoyl)carbamate]: more than 10 µM.
Next, `CCn1nc(-c2ccc(CNS(=O)(=O)NC(=O)OC(C)(C)C)cc2)c2ccccc2c1=O` [Compound No. 67, tert-butyl (N-(4-(3-ethyl-4-oxo-3,4-dihydrophthalazin-1-yl)benzyl)sulfamoyl)carbamate]: more than 10 µM; `CC(C)(C)OC(=O)NS(=O)(=O)NCc1ccc(-c2nn(-c3ccccc3)c(=O)c3ccccc23)cc1` [Compound No. 69, tert-butyl (N-(4-(4-oxo-3-phenyl-3,4-dihydrophthalazin-1-yl)benzyl)sulfamoyl)carbamate]: more than 10 µM; `CC(C)(C)OC(=O)NS(=O)(=O)NCc1ccc(-c2nn(Cc3ccccc3)c(=O)c3ccccc23)cc1` [Compound No. 70]: more than 10 µM.
With `CC(C)(C)OC(=O)NS(=O)(=O)NCc1ccc(-c2nn(Cc3ccc(F)cc3)c(=O)c3ccccc23)cc1` [Compound No. 71, tert-butyl (N-(4-(3-(4-fluorobenzyl)-4-oxo-3,4-dihydrophthalazin-1-yl)benzyl)sulfamoyl)carbamate], the IC50 is more than 10 µM.
In the case of `COc1ccc2c(=O)[nH]nc(-c3ccc(CNS(=O)(=O)NC(=O)OC(C)(C)C)cc3)c2c1` [Compound No. 72] it was more than 10 µM; in that of `COc1ccc2c(=O)n(C)nc(-c3ccc(CNS(=O)(=O)NC(=O)OC(C)(C)C)cc3)c2c1` [Compound No. 73, tert-butyl N-(4-(7-methoxy-3-methyl-4-oxo-3,4-dihydrophthalazin-1-yl)benzyl)sulfamoyl carbamate], more than 10 µM.
Next, `COc1cc2c(-c3ccc(CNS(=O)(=O)NC(=O)OC(C)(C)C)cc3)n[nH]c(=O)c2cc1OC` [Compound No. 76, tert-butyl (N-(4-(6,7-dimethoxy-4-oxo-3,4-dihydrophthalazin-1-yl)benzyl)sulfamoyl)carbamate]: 1 to 10 µM; `COc1cc2c(-c3ccc(CNS(=O)(=O)NC(=O)OC(C)(C)C)cc3)nn(C)c(=O)c2cc1OC` [Compound No. 77, tert-butyl (N-(4-(6,7-dimethoxy-3-methyl-4-oxo-3,4-dihydrophthalazin-1-yl)benzyl)sulfamoyl)carbamate]: 1 to 10 µM; `CC(C)(C)OC(=O)NS(=O)(=O)NCc1ccc(-c2n[nH]c(=O)c3ccccc23)cc1C(F)(F)F` [Compound No. 81, tert-butyl N-(4-(4-oxo-3,4-dihydrophthalazin-1-yl)-2-(trifluoromethyl)benzyl)sulfamoyl carbamate]: more than 10 µM.
In the case of `CC(C)(C)OC(=O)NS(=O)(=O)N1CCc2cc(-c3n[nH]c(=O)c4ccccc34)ccc2C1` [Compound No. 83, tert-butyl ((6-(4-oxo-3,4-dihydrophthalazin-1-yl)-3,4-dihydroisoquinolin-2(1H)-yl)sulfonyl)carbamate] it was more than 10 µM.
